What was measured:
[1] = test system: U937 macrophages; experiment: TNFα in U937 macrophages stimulated with smooth LPS, with SP-A and PtdGro; assay type: cell-based; details: 100 ng/ml smooth LPS, 6 hours, SP-A 10 μg/ml, lipid 20 μg/ml
Experimental: U937 macrophages were stimulated with 100 ng/ml smooth LPS for 6 hours. The culture medium was harvested and assayed for the presence of TNFα by ELISA. Control cultures received no additions. SP-A was added as indicated at 10 μg/ml. Saturated-(16:0/16:0)-PtdGro was added at 20 μg/ml. Unsaturated-(18:1/18:1)-PtdGro was added at 20 μg/ml.

[2] = test system: TNF-α stimulated macrophages; experiment: IkBα degradation in TNF-α stimulated macrophages; assay type: cell-based; details: TNF-α 10 ng/ml
Experimental: Protein synthesis was measured by determining [^3H]-Leucine incorporation into trichloroacetic acid precipitable material in the presence and absence of 200 μg/ml POPG. No changes in protein synthesis occurred over a 6 hr period in POPG treated U937 cells compared to untreated cells in 3 independent experiments. […] In these studies, macrophages were treated with TNF-α (10 ng/ml) and the degradation of IkBα was measured. […] Collectively, these studies indicate that the actions of the anionic lipids upon LPS signaling are specific.

[3] = target: T1, TLR1 (Mus musculus, UniProt Q9EPQ1); experiment: TLR agonist TNFα production in RAW 264.7 cells, TLR1; assay type: cell-based; details: Pam3Cys, 24 h
T1 construct: endogenous in cells; host or cells: RAW 264.7
T1 sequence (Q9EPQ1 26-795): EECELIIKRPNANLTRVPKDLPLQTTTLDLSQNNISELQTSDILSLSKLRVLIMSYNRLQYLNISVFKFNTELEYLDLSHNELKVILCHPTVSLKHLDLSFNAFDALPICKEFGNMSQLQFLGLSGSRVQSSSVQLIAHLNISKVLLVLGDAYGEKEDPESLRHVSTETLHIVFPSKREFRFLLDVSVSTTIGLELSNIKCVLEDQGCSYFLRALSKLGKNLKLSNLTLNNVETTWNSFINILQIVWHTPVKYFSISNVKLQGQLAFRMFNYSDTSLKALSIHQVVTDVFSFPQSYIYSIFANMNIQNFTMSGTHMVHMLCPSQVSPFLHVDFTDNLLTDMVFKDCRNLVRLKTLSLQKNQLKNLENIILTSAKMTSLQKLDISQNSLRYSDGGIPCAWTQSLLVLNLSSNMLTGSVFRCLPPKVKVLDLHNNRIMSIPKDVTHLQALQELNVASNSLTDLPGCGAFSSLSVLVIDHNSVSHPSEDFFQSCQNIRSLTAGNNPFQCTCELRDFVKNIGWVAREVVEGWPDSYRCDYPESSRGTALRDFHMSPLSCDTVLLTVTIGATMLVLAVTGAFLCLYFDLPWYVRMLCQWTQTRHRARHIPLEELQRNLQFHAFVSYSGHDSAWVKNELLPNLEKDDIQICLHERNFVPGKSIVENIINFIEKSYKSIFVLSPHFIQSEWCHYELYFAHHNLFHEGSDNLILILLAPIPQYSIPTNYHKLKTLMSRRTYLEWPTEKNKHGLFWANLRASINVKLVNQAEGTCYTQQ
Experimental: (§1) In this experiment, multiple TLRs were stimulated with defined TLR agonists for 24 h and the TNFα production was measured. In each case, the maximal stimulation by agonist is set at 100% and the antagonism by POPG is expressed as the relative % response. The Controls consist of no treatment, or treatment with POPG in the absence of agonist as indicated. The agonists for the TLRs consist of Pam3Cys for TLR1/2, Mycoplasma pneumoniae membranes as an agonist for TLR2, mycoplasma derived MALP2 as an agonist for TLR 2/6, double stranded RNA (poly IC) for TLR3, Gram-negative lipopolysaccharide for TLR4, and CpG rich DNA as an agonist for TLR9. The TLR4 panel also contains the antagonist polymyxin B (PB) for comparison with POPG.

[4] = target: T2, TLR2 (Mus musculus, UniProt Q9QUN7); experiment: TLR agonist TNFα production in RAW 264.7 cells, TLR2; assay type: cell-based; details: Mycoplasma pneumoniae membranes, 24 h
T2 construct: endogenous in cells; host or cells: RAW 264.7
T2 sequence (Q9QUN7 25-784): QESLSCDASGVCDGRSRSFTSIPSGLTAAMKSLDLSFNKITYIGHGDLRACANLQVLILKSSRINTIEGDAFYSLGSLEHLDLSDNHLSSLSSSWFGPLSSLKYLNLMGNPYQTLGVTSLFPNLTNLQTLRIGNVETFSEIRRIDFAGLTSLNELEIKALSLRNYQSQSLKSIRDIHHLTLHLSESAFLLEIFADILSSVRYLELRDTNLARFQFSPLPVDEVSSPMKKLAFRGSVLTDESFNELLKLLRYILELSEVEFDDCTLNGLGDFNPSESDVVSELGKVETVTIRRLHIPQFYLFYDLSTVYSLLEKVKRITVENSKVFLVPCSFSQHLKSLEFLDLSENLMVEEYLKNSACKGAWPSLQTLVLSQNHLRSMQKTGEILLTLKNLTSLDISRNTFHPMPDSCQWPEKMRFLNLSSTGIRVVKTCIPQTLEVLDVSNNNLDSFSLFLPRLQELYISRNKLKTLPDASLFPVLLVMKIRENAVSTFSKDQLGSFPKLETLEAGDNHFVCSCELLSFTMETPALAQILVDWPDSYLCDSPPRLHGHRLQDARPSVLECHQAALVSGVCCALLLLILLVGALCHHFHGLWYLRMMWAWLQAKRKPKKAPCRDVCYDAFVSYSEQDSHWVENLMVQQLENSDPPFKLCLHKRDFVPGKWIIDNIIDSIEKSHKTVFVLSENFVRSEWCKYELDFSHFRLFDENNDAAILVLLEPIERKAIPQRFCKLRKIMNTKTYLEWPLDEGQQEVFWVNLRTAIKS
Experimental: as §1

[5] = target: T3, TLR6 (Mus musculus, UniProt Q9EPW9); experiment: TLR agonist TNFα production in RAW 264.7 cells, TLR6; assay type: cell-based; details: MALP2, 24 h
T3 construct: endogenous in cells; host or cells: RAW 264.7
T3 sequence (Q9EPW9 28-795): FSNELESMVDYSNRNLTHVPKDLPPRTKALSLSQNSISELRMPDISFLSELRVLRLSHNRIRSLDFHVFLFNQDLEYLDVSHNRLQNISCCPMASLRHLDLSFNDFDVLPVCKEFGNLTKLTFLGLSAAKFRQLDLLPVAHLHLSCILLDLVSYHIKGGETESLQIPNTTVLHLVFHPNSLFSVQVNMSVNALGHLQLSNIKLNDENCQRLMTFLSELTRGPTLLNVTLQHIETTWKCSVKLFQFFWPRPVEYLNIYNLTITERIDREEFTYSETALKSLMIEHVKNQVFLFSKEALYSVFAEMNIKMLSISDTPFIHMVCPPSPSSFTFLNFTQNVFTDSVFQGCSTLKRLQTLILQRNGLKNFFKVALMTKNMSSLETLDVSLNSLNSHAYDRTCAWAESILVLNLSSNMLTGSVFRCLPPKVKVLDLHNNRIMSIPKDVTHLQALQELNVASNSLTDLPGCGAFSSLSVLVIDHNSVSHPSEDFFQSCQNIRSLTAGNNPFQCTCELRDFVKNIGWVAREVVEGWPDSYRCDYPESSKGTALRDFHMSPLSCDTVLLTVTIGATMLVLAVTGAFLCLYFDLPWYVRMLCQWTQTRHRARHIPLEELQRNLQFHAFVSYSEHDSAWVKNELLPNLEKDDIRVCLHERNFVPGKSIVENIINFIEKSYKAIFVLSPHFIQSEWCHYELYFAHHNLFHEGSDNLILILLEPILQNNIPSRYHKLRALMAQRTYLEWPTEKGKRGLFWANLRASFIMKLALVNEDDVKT
Experimental: as §1

[6] = target: T4, Toll-like receptor 3 (Homo sapiens, UniProt O15455); experiment: polyIC IL-8 production in NHBE cells; assay type: cell-based; details: 24 hr
T4 construct: endogenous in cells; host or cells: primary normal human bronchial epithelial (NHBE) cells
T4 sequence (O15455 24-904): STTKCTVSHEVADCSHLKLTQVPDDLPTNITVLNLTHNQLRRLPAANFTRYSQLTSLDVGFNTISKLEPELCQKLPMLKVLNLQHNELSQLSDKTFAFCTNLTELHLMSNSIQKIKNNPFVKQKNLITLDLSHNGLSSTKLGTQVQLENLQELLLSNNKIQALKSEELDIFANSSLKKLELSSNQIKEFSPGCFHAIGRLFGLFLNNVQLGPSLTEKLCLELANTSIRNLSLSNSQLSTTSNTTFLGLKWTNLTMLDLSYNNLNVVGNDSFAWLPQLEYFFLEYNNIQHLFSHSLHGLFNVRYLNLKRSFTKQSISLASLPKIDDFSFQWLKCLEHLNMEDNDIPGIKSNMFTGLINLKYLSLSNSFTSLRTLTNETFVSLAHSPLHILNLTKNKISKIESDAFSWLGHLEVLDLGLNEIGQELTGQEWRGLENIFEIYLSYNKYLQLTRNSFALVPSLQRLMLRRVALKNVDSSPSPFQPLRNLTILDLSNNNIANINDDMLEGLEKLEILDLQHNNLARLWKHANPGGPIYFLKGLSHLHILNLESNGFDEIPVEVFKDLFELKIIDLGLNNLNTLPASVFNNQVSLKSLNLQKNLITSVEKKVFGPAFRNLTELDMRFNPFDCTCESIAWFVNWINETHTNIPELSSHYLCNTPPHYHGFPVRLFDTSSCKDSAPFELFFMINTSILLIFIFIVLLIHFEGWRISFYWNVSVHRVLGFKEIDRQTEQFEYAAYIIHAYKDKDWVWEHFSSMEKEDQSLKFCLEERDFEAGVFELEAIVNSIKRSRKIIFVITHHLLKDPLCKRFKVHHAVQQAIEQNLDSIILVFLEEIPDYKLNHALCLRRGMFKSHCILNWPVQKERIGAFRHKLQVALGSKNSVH
Experimental: In this experiment, NHBE cells were stimulated with double stranded RNA (polyIC) and the IL-8 production was measured after an interval of 24 hr. The maximal stimulation by agonist is set at 100% and the antagonism by POPG is expressed as the relative % response. The Controls consist of no treatment, or treatment with POPG, in the absence of agonist as indicated.

[7] = target: T5, TLR4 (Homo sapiens, UniProt O00206); experiment: TLR agonist IL-8 production in primary human neutrophils, TLR4; assay type: cell-based; details: LPS, 5-24 h
T5 construct: multiple Toll-like receptors (TLRs) on primary human neutrophils; endogenous in cells; host or cells: primary human neutrophils
T5 sequence (O00206 24-839): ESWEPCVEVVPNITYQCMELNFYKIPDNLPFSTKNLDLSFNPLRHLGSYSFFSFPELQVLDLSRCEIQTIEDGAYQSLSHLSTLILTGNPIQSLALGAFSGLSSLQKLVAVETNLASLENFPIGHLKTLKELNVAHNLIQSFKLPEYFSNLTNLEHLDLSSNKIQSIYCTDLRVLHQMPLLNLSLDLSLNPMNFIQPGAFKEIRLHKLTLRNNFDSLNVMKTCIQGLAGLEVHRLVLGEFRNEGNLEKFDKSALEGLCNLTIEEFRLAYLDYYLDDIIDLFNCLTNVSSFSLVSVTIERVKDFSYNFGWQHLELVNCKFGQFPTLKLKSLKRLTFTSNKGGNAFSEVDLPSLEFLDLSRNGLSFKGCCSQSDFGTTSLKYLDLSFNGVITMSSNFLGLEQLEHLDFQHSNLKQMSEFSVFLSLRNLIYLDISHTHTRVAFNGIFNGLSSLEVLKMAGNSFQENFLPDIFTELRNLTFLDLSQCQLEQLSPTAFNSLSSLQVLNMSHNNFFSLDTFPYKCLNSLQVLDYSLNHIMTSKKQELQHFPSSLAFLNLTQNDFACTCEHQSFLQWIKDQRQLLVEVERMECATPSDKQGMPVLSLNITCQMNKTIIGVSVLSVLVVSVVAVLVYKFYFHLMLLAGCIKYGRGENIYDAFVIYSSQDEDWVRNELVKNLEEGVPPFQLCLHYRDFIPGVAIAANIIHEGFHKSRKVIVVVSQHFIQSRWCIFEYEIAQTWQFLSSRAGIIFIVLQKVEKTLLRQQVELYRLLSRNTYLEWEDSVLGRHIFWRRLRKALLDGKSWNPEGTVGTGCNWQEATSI
T5 sequence (Q9Y6Y9 19-160 partner): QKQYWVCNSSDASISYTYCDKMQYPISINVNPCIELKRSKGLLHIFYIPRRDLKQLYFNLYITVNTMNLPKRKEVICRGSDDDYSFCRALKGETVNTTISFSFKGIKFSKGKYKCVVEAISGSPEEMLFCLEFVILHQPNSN
Experimental: In this experiment, multiple TLRs were stimulated with defined TLR agonists for 5-24 h as indicated, and the IL-8 production was measured. In each case the maximal stimulation by agonist is set at 100% and the antagonism by POPG is expressed as the relative % response. The Controls consist of no treatment, or treatment with POPG, in the absence of agonist as indicated. The agonists for the TLRs consist of Pam3Cys for TLR1/2, double stranded RNA (poly IC) for TLR3, Gram-negative lipopolysaccharide (LPS) for TLR4, and single stranded RNA (polyU) for TLR7/8.

[8] = test system: Respiratory Syncytial Virus (RSV); experiment: RSV-induced cytokine production in BEAS2B cells; assay type: cell-based
[9] = test system: Respiratory Syncytial Virus (RSV); experiment: RSV-induced cytokine production in NHBE cells; assay type: cell-based
[10] = test system: Respiratory Syncytial Virus (RSV); experiment: RSV replication in NHBE cells (anti-RSV antibody staining); assay type: cell-based; details: multiplicity 3, 72 h, POPG 200 ug/ml
Experimental: Monolayers of BEAS2B and NHBE cells were infected with RSV at a multiplicity of 3 for 72 h. Infections were performed on cells in either the absence or the presence of POPG (200 ug/ml). The cell monolayers were fixed and stained with goat anti-human RSV antibody conjugated with horseradish peroxidase. The presence of the antibody was detected with diaminobenzamidine. Controls consisted of cell layers not exposed to the virus or exposed to POPG in the absence of virus as indicated.

[11] = test system: RSV; experiment: RSV binding to solid phase phospholipids (ELISA); set-up: species or system Respiratory Syncytial Virus (RSV); details: 10 ug lipid per well, varying RSV
Experimental: Solid phase phospholipids (10 ug) were adsorbed to microtiter wells by evaporation of ethanol solvent. The wells were blocked with albumin and exposed to varying concentrations of RSV as shown in the left panel of FIG. 37. The wells were washed 3 times with phosphate buffered saline and the bound virus was detected by ELISA using polyclonal rabbit anti-RSV.

[12] = test system: influenza-A virus H3N2; experiment: Influenza-A cytopathic effects and cell death in BEAS2B cells; assay type: cell-based; details: 72 h, 200 ug/ml POPG
[13] = test system: influenza-A virus H3N2; assay type: cell-based; details: BEAS2B, multiplicities 1-10, 24, 48 and 72 h, 200 ug/ml POPG added 30 minutes prior
[14] = RSV multiplicity 0.5-1, 48 h, 200 ug/ml
[15] = RSV multiplicity 3, 48 h, lipid 200 ug/ml

CCCCCCCCCCCCCCCC(=O)OCC(COP(=O)(O)OCC(O)CO)OC(=O)CCCCCCCCCCCCCCC (stereo not drawn) [DPPG, dipalmitoyl-phosphatidylglycerol, reference compound]
blocking of the anti-inflammatory effects of SP-A (TNFα) [1]: does not block

CCCCCCCC/C=C\CCCCCCCC(=O)O[C@H](COC(=O)CCCCCCCCCCCCCCC)COP(=O)(O)OCC(O)CO (stereo partly drawn) [POPG, palmitoyl-oleoyl-phosphatidylglycerol]
IkBα degradation after TNF-α stimulation [2]: failed to alter | activity of TLR1 (TNFα production) [3]: inhibits | activity of TLR2 (TNFα production) [4]: inhibits | activity of TLR6 (TNFα production) [5]: inhibits | activity of TLR3 (IL-8 production) [6]: inhibits | activity of TLR4 (IL-8 production) [7]: inhibits | IL-8 production, varying concentrations of POPG ([8]; RSV multiplicity 0.5, 48 hours): inhibits IL-8 production from epithelial cells in a concentration-dependent manner | inflammatory cytokine production (IL-6, IL-8) [8, 14]: suppresses | IL-6 production [8, 15]: inhibits | IL-8 production [8, 15]: inhibits | inflammatory cytokine production (IL-6, IL-8) [9, 14]: suppresses | IL-6 production [9, 15]: inhibits | IL-8 production [9, 15]: inhibits | viral replication [10]: prevents viral replication | binding of RSV to solid phase phospholipid [11]: binds RSV with high affinity and specificity | cell death induced by influenza A infection [12]: prevents cell death | influenza-A induced IL-8 production [13]: suppresses

From patent US10532066B2, “Surfactant lipids, compositions thereof, and uses thereof” (National Jewish Health, priority 2007, dated 2020)
